According to PubChem BioAssay AID1259407 (Chemical Carcinogenesis Research Information System (CCRIS), 2018):
Calls of active or inactive are those of the source. How the calls were made is not given here.

System: CCRIS mutagenicity, Ames/micronucleus/aberration tests
Test: CCRIS mutagenicity studies
[1] = Test System: AMES SALMONELLA TYPHIMURIUM, Strain/Indicator: TA98, Metabolic Activation: NONE, Method: STANDARD PLATE
[2] = Test System: AMES SALMONELLA TYPHIMURIUM, Strain/Indicator: TA100, Metabolic Activation: NONE, Method: STANDARD PLATE

Measured: mutagenic call

CC(C)OC(=O)COc1ccc(Cl)cc1Cl
inactive: [1] inactive; negative | Test System: AMES SALMONELLA TYPHIMURIUM, Strain/Indicator: TA98, Metabolic Activation: RAT LIVER S-9, AROCLOR 1254, 10%, Method: STANDARD PLATE inactive; negative | [2] inactive; negative | Test System: AMES SALMONELLA TYPHIMURIUM, Strain/Indicator: TA100, Metabolic Activation: RAT LIVER S-9, AROCLOR 1254, 10%, Method: STANDARD PLATE inactive; negative | Test System: AMES SALMONELLA TYPHIMURIUM, Strain/Indicator: TA1535, Metabolic Activation: NONE, Method: STANDARD PLATE inactive; negative | Test System: AMES SALMONELLA TYPHIMURIUM, Strain/Indicator: TA1535, Metabolic Activation: RAT LIVER S-9, AROCLOR 1254, 10%, Method: STANDARD PLATE inactive; negative | Test System: AMES SALMONELLA TYPHIMURIUM, Strain/Indicator: TA1537, Metabolic Activation: NONE, Method: STANDARD PLATE inactive; negative | Test System: AMES SALMONELLA TYPHIMURIUM, Strain/Indicator: TA1537, Metabolic Activation: RAT LIVER S-9, AROCLOR 1254, 10%, Method: STANDARD PLATE inactive; negative | Test System: AMES SALMONELLA TYPHIMURIUM, Strain/Indicator: TA1538, Metabolic Activation: NONE, Method: STANDARD PLATE inactive; negative | Test System: AMES SALMONELLA TYPHIMURIUM, Strain/Indicator: TA1538, Metabolic Activation: RAT LIVER S-9, AROCLOR 1254, 10%, Method: STANDARD PLATE inactive; negative | Test System: UDS RAT HEPATOCYTES, Strain/Indicator: THYMIDINE INCORPORATION, Metabolic Activation: NONE, Method: AUTORADIOGRAPHY inactive; negative

Cc1cc(=O)n(-c2ccccc2)n1C
inactive: Test System: AMES SALMONELLA TYPHIMURIUM, Strain/Indicator: TA97, Metabolic Activation: NONE, Method: STANDARD PLATE inactive; negative | Test System: AMES SALMONELLA TYPHIMURIUM, Strain/Indicator: TA97, Metabolic Activation: RAT, LIVER, S-9, AROCLOR 1254, Method: STANDARD PLATE inactive; negative | Test System: AMES SALMONELLA TYPHIMURIUM, Strain/Indicator: TA97A, Metabolic Activation: NONE, Method: STANDARD PLATE inactive; negative | Test System: AMES SALMONELLA TYPHIMURIUM, Strain/Indicator: TA97A, Metabolic Activation: RAT LIVER S-9, PHENOBARBITAL, Method: STANDARD PLATE inactive; negative | Test System: AMES SALMONELLA TYPHIMURIUM, Strain/Indicator: TA98, Metabolic Activation: GUINEA PIG, LIVER, S-9, PCB, Method: PREINCUBATION inactive; negative | Test System: AMES SALMONELLA TYPHIMURIUM, Strain/Indicator: TA98, Metabolic Activation: HAMSTER, LIVER, S-9, PCB, Method: PREINCUBATION inactive; negative | Test System: AMES SALMONELLA TYPHIMURIUM, Strain/Indicator: TA98, Metabolic Activation: MOUSE, LIVER, S-9, PCB, Method: PREINCUBATION inactive; negative | Test System: AMES SALMONELLA TYPHIMURIUM, Strain/Indicator: TA98, Metabolic Activation: NONE, Method: PREINCUBATION inactive; negative | [1] inactive; negative | Test System: AMES SALMONELLA TYPHIMURIUM, Strain/Indicator: TA98, Metabolic Activation: RAT LIVER S-9, PHENOBARBITAL, Method: STANDARD PLATE inactive; negative | Test System: AMES SALMONELLA TYPHIMURIUM, Strain/Indicator: TA98, Metabolic Activation: RAT, LIVER, S-9, AROCLOR 1254, Method: STANDARD PLATE inactive; negative | Test System: AMES SALMONELLA TYPHIMURIUM, Strain/Indicator: TA98, Metabolic Activation: RAT, LIVER, S-9, PCB, Method: PREINCUBATION inactive; negative | Test System: AMES SALMONELLA TYPHIMURIUM, Strain/Indicator: TA100, Metabolic Activation: GUINEA PIG, LIVER, S-9, PCB, Method: PREINCUBATION inactive; negative | Test System: AMES SALMONELLA TYPHIMURIUM, Strain/Indicator: TA100, Metabolic Activation: HAMSTER, LIVER, S-9, PCB, Method: PREINCUBATION inactive; negative | Test System: AMES SALMONELLA TYPHIMURIUM, Strain/Indicator: TA100, Metabolic Activation: MOUSE, LIVER, S-9, PCB, Method: PREINCUBATION inactive; negative | Test System: AMES SALMONELLA TYPHIMURIUM, Strain/Indicator: TA100, Metabolic Activation: NONE, Method: PREINCUBATION inactive; negative | [2] inactive; negative | Test System: AMES SALMONELLA TYPHIMURIUM, Strain/Indicator: TA100, Metabolic Activation: RAT LIVER S-9, PHENOBARBITAL, Method: STANDARD PLATE inactive; negative | Test System: AMES SALMONELLA TYPHIMURIUM, Strain/Indicator: TA100, Metabolic Activation: RAT, LIVER, S-9, AROCLOR 1254, Method: STANDARD PLATE inactive; negative | Test System: AMES SALMONELLA TYPHIMURIUM, Strain/Indicator: TA100, Metabolic Activation: RAT, LIVER, S-9, PCB, Method: PREINCUBATION inactive; negative | Test System: AMES SALMONELLA TYPHIMURIUM, Strain/Indicator: TA102, Metabolic Activation: NONE, Method: STANDARD PLATE inactive; negative | Test System: AMES SALMONELLA TYPHIMURIUM, Strain/Indicator: TA102, Metabolic Activation: RAT LIVER S-9, PHENOBARBITAL, Method: STANDARD PLATE inactive; negative | Test System: AMES SALMONELLA TYPHIMURIUM, Strain/Indicator: TA102, Metabolic Activation: RAT, LIVER, S-9, AROCLOR 1254, Method: STANDARD PLATE inactive; negative | Test System: AMES SALMONELLA TYPHIMURIUM, Strain/Indicator: TA104, Metabolic Activation: NONE, Method: STANDARD PLATE inactive; negative | Test System: AMES SALMONELLA TYPHIMURIUM, Strain/Indicator: TA104, Metabolic Activation: RAT, LIVER, S-9, AROCLOR 1254, Method: STANDARD PLATE inactive; negative
